Results as given in PubChem BioAssay AID1259407 (Chemical Carcinogenesis Research Information System (CCRIS), 2018).
The source made the active and inactive calls. The rule behind the calls is not given here.

Test system: CCRIS mutagenicity, Ames/micronucleus/aberration tests
Assay: CCRIS mutagenicity studies
[1] = Test System: AMES SALMONELLA TYPHIMURIUM, Strain/Indicator: TA100, Metabolic Activation: NONE, Method: STANDARD PLATE
[2] = Test System: AMES SALMONELLA TYPHIMURIUM, Strain/Indicator: TA100, Metabolic Activation: NONE, Method: PREINCUBATION

Measured: mutagenic call

CCO[Si](OCC)(OCC)OCC
inactive: Test System: AMES SALMONELLA TYPHIMURIUM, Strain/Indicator: TA98, Metabolic Activation: HAMSTER, LIVER, S-9, AROCLOR 1254, Method: STANDARD PLATE inactive; negative | Test System: AMES SALMONELLA TYPHIMURIUM, Strain/Indicator: TA98, Metabolic Activation: NONE, Method: STANDARD PLATE inactive; negative | Test System: AMES SALMONELLA TYPHIMURIUM, Strain/Indicator: TA98, Metabolic Activation: RAT, LIVER, S-9, AROCLOR 1254, Method: STANDARD PLATE inactive; negative | Test System: AMES SALMONELLA TYPHIMURIUM, Strain/Indicator: TA100, Metabolic Activation: HAMSTER, LIVER, S-9, AROCLOR 1254, Method: STANDARD PLATE inactive; negative | [1] inactive; negative | Test System: AMES SALMONELLA TYPHIMURIUM, Strain/Indicator: TA100, Metabolic Activation: RAT, LIVER, S-9, AROCLOR 1254, Method: STANDARD PLATE inactive; negative | Test System: AMES SALMONELLA TYPHIMURIUM, Strain/Indicator: TA102, Metabolic Activation: HAMSTER, LIVER, S-9, AROCLOR 1254, Method: STANDARD PLATE inactive; negative | Test System: AMES SALMONELLA TYPHIMURIUM, Strain/Indicator: TA102, Metabolic Activation: NONE, Method: STANDARD PLATE inactive; negative | Test System: AMES SALMONELLA TYPHIMURIUM, Strain/Indicator: TA102, Metabolic Activation: RAT, LIVER, S-9, AROCLOR 1254, Method: STANDARD PLATE inactive; negative | Test System: AMES SALMONELLA TYPHIMURIUM, Strain/Indicator: TA1535, Metabolic Activation: HAMSTER, LIVER, S-9, AROCLOR 1254, Method: STANDARD PLATE inactive; negative | Test System: AMES SALMONELLA TYPHIMURIUM, Strain/Indicator: TA1535, Metabolic Activation: NONE, Method: STANDARD PLATE inactive; negative | Test System: AMES SALMONELLA TYPHIMURIUM, Strain/Indicator: TA1535, Metabolic Activation: RAT, LIVER, S-9, AROCLOR 1254, Method: STANDARD PLATE inactive; negative | Test System: AMES SALMONELLA TYPHIMURIUM, Strain/Indicator: TA1537, Metabolic Activation: HAMSTER, LIVER, S-9, AROCLOR 1254, Method: STANDARD PLATE inactive; negative | Test System: AMES SALMONELLA TYPHIMURIUM, Strain/Indicator: TA1537, Metabolic Activation: NONE, Method: STANDARD PLATE inactive; negative | Test System: AMES SALMONELLA TYPHIMURIUM, Strain/Indicator: TA1537, Metabolic Activation: RAT, LIVER, S-9, AROCLOR 1254, Method: STANDARD PLATE inactive; negative | Test System: MOUSE LYMPHOMA, Strain/Indicator: L5178Y (TK+/TK-), Metabolic Activation: NONE, Method: SUSPENSION/PLATE inactive; negative. reevaluation of results: negative | Test System: Mouse lymphoma, Strain/Indicator: L5178 Y (tk+/tk-), Metabolic Activation: Rat, Liver, S-9, Aroclor 1254, Method: Suspension/plate inactive; negative

Oc1ccc2ncccc2c1
inactive: [1] inactive; negative | Test System: AMES SALMONELLA TYPHIMURIUM, Strain/Indicator: TA100, Metabolic Activation: RAT, LIVER, S-9, AROCLOR 1254 (10% OR 20%), Method: STANDARD PLATE inactive; negative

COC(=O)[C@@]12Oc3ccc(-c4ccc5c(c4O)C(O)=C4C(=O)C[C@H](C)[C@@H](O)[C@]4(C(=O)OC)O5)c(O)c3C(O)=C1C(=O)C[C@H](C)[C@H]2O
inactive: [2] inactive; negative | Test System: AMES SALMONELLA TYPHIMURIUM, Strain/Indicator: TA100, Metabolic Activation: RAT, LIVER, S-9, PHENOBARBITAL, Method: PREINCUBATION inactive; negative

O=[N+]([O-])c1ccc(/C=C/c2ccc([N+](=O)[O-])cc2S(=O)(=O)O)c(S(=O)(=O)O)c1
inactive: Test System: AMES SALMONELLA TYPHIMURIUM, Strain/Indicator: TA98, Metabolic Activation: NONE, Method: PREINCUBATION inactive; negative | Test System: AMES SALMONELLA TYPHIMURIUM, Strain/Indicator: TA98, Metabolic Activation: RAT LIVER S-9, PHENOBARBITAL AND BETA-NAPHTHOFLAVONE, Method: PREINCUBATION inactive; negative | [2] inactive; negative | Test System: AMES SALMONELLA TYPHIMURIUM, Strain/Indicator: TA100, Metabolic Activation: RAT LIVER S-9, PHENOBARBITAL AND BETA-NAPHTHOFLAVONE, Method: PREINCUBATION inactive; negative | Test System: AMES SALMONELLA TYPHIMURIUM, Strain/Indicator: TA1535, Metabolic Activation: NONE, Method: PREINCUBATION inactive; negative | Test System: AMES SALMONELLA TYPHIMURIUM, Strain/Indicator: TA1535, Metabolic Activation: RAT LIVER S-9, PHENOBARBITAL AND BETA-NAPHTHOFLAVONE, Method: PREINCUBATION inactive; negative | Test System: AMES SALMONELLA TYPHIMURIUM, Strain/Indicator: TA1537, Metabolic Activation: NONE, Method: PREINCUBATION inactive; negative | Test System: AMES SALMONELLA TYPHIMURIUM, Strain/Indicator: TA1537, Metabolic Activation: RAT LIVER S-9, PHENOBARBITAL AND BETA-NAPHTHOFLAVONE, Method: PREINCUBATION inactive; negative | Test System: E.COLI, Strain/Indicator: WP2UVRA/PKM101, Metabolic Activation: NONE, Method: PREINCUBATION inactive; negative | Test System: E.COLI, Strain/Indicator: WP2UVRA/PKM101, Metabolic Activation: RAT LIVER S-9, PHENOBARBITAL AND BETA-NAPHTHOFLAVONE, Method: PREINCUBATION inactive; negative
